# Data: US20250129086A1, “COMPOUND FOR DEGRADING EGFR PROTEIN AND USE THEREOF” (TYK MEDICINES, INC., priority 2021, published 2025)
# How the values were obtained:
# Type in all cases: cell-based, human
# [1] = system: H1975 (EGFR L858R/T790M double mutation); assay: Cell antiproliferative assay (CTG, 72 h), H1975; settings: Homo sapiens, NCI-H1975, 72 h, Table 2, H1975 cells
# Procedure: (§1) Test Example 1 Cell Antiproliferative Assay
# (§2) H1975: with EGFR: L858R/T790M double mutation; PC-9 with EGFR exon 19 deletion, HCC827 with exon 19 deletion mutation. CellCounting-Lite2.0, Trypsin EDTA, 37° C. CO2 incubator, cell counter, EnVision Serial No.1050454. II. Experimental preparation:
# (§3) • (A) Trypsin EDTA was used to digest log-phase cells, medium was added to terminate the reaction, and a cell suspension was made by blowing and mixing with a pipette. • (B) Cell concentration was determined using Vi-cell, and a suspension of 15,000-25,000 cells per milliliter was made depending on the purpose of the experiment and the characteristics of the cells. • (C) After the cell suspension was prepared, it was gently mixed and 100 microliters per well was added so that the density of cells to be tested was 1500-2500 per well.
# (§4) • (A) About 2 mg of compound was weighed, and the volume of DMSO required was calculated according to the formula: compound mass (mg)*compound purity (%)/compound molecular weight*1000 • (B) The inoculated cell culture plates were incubated in an incubator and the compounds with concentration gradient were added after about 24 hours. • (C)10 Mm of compound stock solution was diluted to […] with medium, and 50 Mm of compound solution was added sequentially to the second column of the deep-well plate, and […] of medium containing 0.5% DMSO was added to the third to eleventh columns. • (D) Gradient dilution: 125 μl of solution was pipetted from the second column and added to the third column, after mixing; another 125 μl of solution was pipetted from the third column and added to the fourth column, and the operation was repeated until the tenth column. • (E)25 μl of compound was pipetted from the deep-well plate into a 96-well culture plate using a multichannel pipette, and each compound was repeated three times on the 96-well plate. A maximum concentration of 10,000 nm with concentration gradient of 1:4 was eventually formed on the 96-well plate.
# (§5) • (A)96-well plates were incubated in an incubator for 72 h. The effect of the compounds was observed under an inverted microscope. • (B)25 μl of CTG solution was added to each well, the plate was put on shaker for 10 minutes and the […] of each well was read.
# (§6) The cell viability rate (% Cell Viability) was calculated using the following formula: • % Cell Viability=100%×(Lum_Sample-Lum_LC)/(Lum_HC-Lum_LC) • Lum_HC: Cell reading of 0.1% DMSO control • Lum_Sample: Cell reading with compound added • Lum_LC: Reading of Blank media • IC50 values were obtained by curve fitting with GraphPad Prism 8 software.
# [2] = system: PC-9 (EGFR exon 19 deletion); assay: Cell antiproliferative assay (CTG, 72 h), PC-9; settings: Homo sapiens, PC-9, 72 h, Table 2, PC-9 cells
# Procedure: as §1, §2, §3, §4, §5, §6
# [3] = system: HCC827 (exon 19 deletion mutation); assay: Cell antiproliferative assay (CTG, 72 h), HCC827; settings: Homo sapiens, HCC827, 72 h, Table 2, HCC827 cells
# Procedure: as §1, §2, §3, §4, §5, §6
smiles,measurement,setting,value
COc1cc(N2CCN(C(=O)CN3CCC(c4ccc(NC5CCC(=O)NC5=O)cc4)CC3)CC2)ccc1Nc1ncc(Cl)c(Nc2ccccc2C(=O)NC(C)C)n1 (stereo not drawn) [Compound T-259],IC50,[1],10 to 100 nM
same,IC50,[2],100 to 1000 nM
same,IC50,[3],100 to 1000 nM
COc1cc(N2CCN(C(=O)CN3CCC(c4ccc(NC5CCC(=O)NC5=O)cc4)CC3)CC2)ccc1Nc1ncc(C(F)(F)F)c(Nc2ccccc2C(=O)Nc2ccccc2)n1 (stereo not drawn) [Compound T-267],IC50,[1],100 to 1000 nM
same,IC50,[2],100 to 1000 nM
same,IC50,[3],100 to 1000 nM
COc1cc(N2CCN(C(=O)CN3CCC(c4ccc(NC5CCC(=O)NC5=O)cc4)CC3)CC2)ccc1Nc1ncc(Cl)c(Nc2cccc3c2C(=O)N(C)C3)n1 (stereo not drawn) [Compound T-268],IC50,[1],10 to 100 nM
same,IC50,[2],10 to 100 nM
same,IC50,[3],10 to 100 nM
COc1cc(N2CCN(C(=O)CN3CCC(c4ccc(NC5CCC(=O)NC5=O)cc4)CC3)CC2)ccc1Nc1ncc(Br)c(Nc2cccc3c2C(=O)NC3)n1 (stereo not drawn) [Compound T-272],IC50,[1],≤ 10 nM
same,IC50,[2],10 to 100 nM
same,IC50,[3],10 to 100 nM
COc1cc(N2CCN(C(=O)CN3CCC(c4ccc(NC5CCC(=O)NC5=O)cc4)CC3)CC2)c(C#N)cc1Nc1ncc(Cl)c(Nc2ccccc2C(C)=O)n1 (stereo not drawn) [Compound T-282],IC50,[1],10 to 100 nM
same,IC50,[2],10 to 100 nM
same,IC50,[3],10 to 100 nM
CNC(=O)c1ccccc1Nc1nc(Nc2cc(C#N)c(N3CCN(C(=O)CN4CCC(c5ccc(NC6CCC(=O)NC6=O)cc5)CC4)CC3)cc2OC)ncc1Cl (stereo not drawn) [Compound T-283],IC50,[1],≤ 10 nM
same,IC50,[2],10 to 100 nM
same,IC50,[3],10 to 100 nM
COc1cc(N2CCN(C(=O)CN3CCC(c4ccc(NC5CCC(=O)NC5=O)cc4)CC3)CC2)c(C#N)cc1Nc1ncc(Br)c(Nc2ccccc2C(C)=O)n1 (stereo not drawn) [Compound T-286],IC50,[1],10 to 100 nM
same,IC50,[2],10 to 100 nM
same,IC50,[3],10 to 100 nM
COc1cc(N2CCN(C(=O)CN3CCC(c4ccc(NC5CCC(=O)NC5=O)cc4)CC3)CC2)c(C(F)(F)F)cc1Nc1ncc(Br)c(Nc2ccccc2C(C)=O)n1 (stereo not drawn) [Compound T-289],IC50,[1],10 to 100 nM
same,IC50,[2],10 to 100 nM
same,IC50,[3],10 to 100 nM
CNC(=O)c1ccccc1Nc1nc(Nc2cc(C(F)(F)F)c(N3CCN(C(=O)CN4CCC(c5ccc(NC6CCC(=O)NC6=O)cc5)CC4)CC3)cc2OC)ncc1Br (stereo not drawn) [Compound T-292],IC50,[1],≤ 10 nM
same,IC50,[2],10 to 100 nM
same,IC50,[3],10 to 100 nM
CNC(=O)c1ccccc1Nc1nc(Nc2ccc(N3CCN(C(=O)CN4CCC(c5ccc(NC6CCC(=O)NC6=O)cc5F)CC4)CC3)cc2OC)ncc1Br (stereo not drawn) [Compound T-295],IC50,[1],≤ 10 nM
same,IC50,[2],10 to 100 nM
same,IC50,[3],10 to 100 nM
CNC(=O)c1ccccc1Nc1nc(Nc2ccc(N3CCN(C(=O)CC4(F)CCN(c5ccc(NC6CCC(=O)NC6=O)cc5)CC4)CC3)cc2OC)ncc1Cl (stereo not drawn) [Compound T-300],IC50,[1],10 to 100 nM
same,IC50,[2],10 to 100 nM
same,IC50,[3],10 to 100 nM
COc1cc(N2CCN(C(=O)CC3(F)CCN(c4ccc(NC5CCC(=O)NC5=O)cc4)CC3)CC2)ccc1Nc1ncc(Cl)c(Nc2ccccc2C(C)=O)n1 (stereo not drawn) [Compound T-303],IC50,[1],10 to 100 nM
same,IC50,[2],10 to 100 nM
same,IC50,[3],10 to 100 nM
CNC(=O)c1ccccc1Nc1nc(Nc2ccc(N3CCN(C(=O)CN4CCC(c5ccc(NC6CCC(=O)NC6=O)cc5)C(F)(F)C4)CC3)cc2OC)ncc1Br (stereo not drawn) [Compound T-313],IC50,[1],≤ 10 nM
same,IC50,[2],10 to 100 nM
same,IC50,[3],10 to 100 nM
COc1cc(N2CCN(C(=O)CN3CCC(c4ccc(NC5CCC(=O)NC5=O)cc4)CC3)CC2)c(C)cc1Nc1ncc(Cl)c(Nc2ccccc2P(C)(C)=O)n1 (stereo not drawn) [Compound T-327],IC50,[1],10 to 100 nM
same,IC50,[2],100 to 1000 nM
same,IC50,[3],100 to 1000 nM
O=C1CCC(Nc2ccc(C3CCN(CC(=O)N4CCN(c5ccc(Nc6ncc(Cl)c(Nc7ccccc7)n6)c(Cl)c5)CC4)CC3)cc2)C(=O)N1 (stereo not drawn) [Compound T-328],IC50,[1],100 to 1000 nM
same,IC50,[2],100 to 1000 nM
same,IC50,[3],100 to 1000 nM
CP(C)(=O)c1ccccc1Nc1nc(Nc2ccc(N3CCN(C(=O)CN4CCC(c5ccc(NC6CCC(=O)NC6=O)cc5)CC4)CC3)cc2Cl)ncc1Cl (stereo not drawn) [Compound T-330],IC50,[1],100 to 1000 nM
same,IC50,[2],100 to 1000 nM
same,IC50,[3],100 to 1000 nM
COc1cc(C2CCN(C(=O)CN3CCC(c4ccc(NC5CCC(=O)NC5=O)cc4)CC3)CC2)ccc1Nc1ncc(Cl)c(Nc2ccccc2P(C)(C)=O)n1 (stereo not drawn) [Compound T-331],IC50,[1],100 to 1000 nM
same,IC50,[2],100 to 1000 nM
same,IC50,[3],≥ 1000 nM
COc1cc(N2CCN(C(=O)CN3CCC(c4ccc(Cn5ccc(=O)[nH]c5=O)cc4)CC3)CC2)ccc1Nc1ncc(Cl)c(Nc2ccccc2C(C)=O)n1 [Compound T-332],IC50,[1],100 to 1000 nM
same,IC50,[2],100 to 1000 nM
same,IC50,[3],100 to 1000 nM
COc1cc(N2CCN(C(=O)CN3CCC(c4ccc(CN5CCC(=O)NC5=O)cc4)CC3)CC2)ccc1Nc1ncc(Cl)c(Nc2ccccc2C(C)=O)n1 [Compound T-337],IC50,[1],100 to 1000 nM
same,IC50,[2],100 to 1000 nM
same,IC50,[3],100 to 1000 nM
COc1cc(N2CCN(CC(=O)N3CCC(c4ccc(NC5CCC(=O)NC5=O)cc4)CC3)CC2)ccc1Nc1ncc(Cl)c(Nc2ccccc2C(C)=O)n1 (stereo not drawn) [Compound T-338],IC50,[1],100 to 1000 nM
same,IC50,[2],100 to 1000 nM
same,IC50,[3],100 to 1000 nM
C=CC(=O)Nc1cc(Nc2ncc(C(F)(F)F)c(Nc3ccccc3)n2)c(OC)cc1N1CCN(C(=O)CN2CCC(c3ccc(NC4CCC(=O)NC4=O)cc3)CC2)CC1 (stereo not drawn) [Compound T-339],IC50,[1],100 to 1000 nM
same,IC50,[2],100 to 1000 nM
same,IC50,[3],100 to 1000 nM
COc1cc(N2CCN(C(=O)CN3CCC(c4ccc(NC5CCC(=O)NC5=O)cc4)CC3)CC2)ccc1Nc1ncc(Cl)c(Nc2ccccc2C(=O)NC2CCCC2)n1 (stereo not drawn) [Compound T-341],IC50,[1],10 to 100 nM
same,IC50,[2],≥ 1000 nM
same,IC50,[3],100 to 1000 nM
COc1cc(N2CCN(C(=O)CN3CCC(c4ccc(NC5CCC(=O)NC5=O)cc4)CC3)CC2)ccc1Nc1ncc(Br)c(Nc2ccccc2C(=O)NC2CCCC2)n1 (stereo not drawn) [Compound T-342],IC50,[1],10 to 100 nM
same,IC50,[2],100 to 1000 nM
same,IC50,[3],10 to 100 nM
COc1cc(N2CCN(C(=O)CN3CCC(c4ccc(NC5CCC(=O)NC5=O)cc4)CC3)CC2)ccc1Nc1ncc(C(F)(F)F)c(Nc2ccccc2C(=O)NC2CCCC2)n1 (stereo not drawn) [Compound T-343],IC50,[1],10 to 100 nM
same,IC50,[2],10 to 100 nM
same,IC50,[3],10 to 100 nM
COc1cc(N2CCC(N(C)C(=O)CN3CCC(c4ccc(NC5CCC(=O)NC5=O)cc4)CC3)CC2)ccc1Nc1ncc(Cl)c(Nc2ccccc2C(C)=O)n1 (stereo not drawn) [Compound T-353],IC50,[1],10 to 100 nM
same,IC50,[2],100 to 1000 nM
same,IC50,[3],100 to 1000 nM
CNC(=O)c1ccccc1Nc1nc(Nc2cc(C)c(N3CCN(C(=O)CN4CCC(c5ccc(NC6CCC(=O)NC6=O)cc5)CC4)C(C)C3)cc2OC)ncc1Cl (stereo not drawn) [Compound T-355],IC50,[1],10 to 100 nM
same,IC50,[2],10 to 100 nM
same,IC50,[3],10 to 100 nM
CNC(=O)c1ccccc1Nc1nc(Nc2cc(C)c(N3CCN(C(=O)CN4CCC(c5ccc(NC6CCC(=O)NC6=O)cc5)CC4)C(C)C3)cc2OC)ncc1Br (stereo not drawn) [Compound T-356],IC50,[1],10 to 100 nM
same,IC50,[2],10 to 100 nM
same,IC50,[3],10 to 100 nM
CNC(=O)c1ccccc1Nc1nc(Nc2cc(C)c(N3CCN(C(=O)CN4CCC(c5ccc(NC6CCC(=O)NC6=O)cc5)CC4)C(C)C3)cc2OC)ncc1C(F)(F)F (stereo not drawn) [Compound T-357],IC50,[1],10 to 100 nM
same,IC50,[2],10 to 100 nM
same,IC50,[3],10 to 100 nM
CNC(=O)c1ccccc1Nc1nc(Nc2cc(C)c(N3CCN(C(=O)CN4CCC(c5ccc(NC6CCC(=O)NC6=O)cc5)CC4)CC3C)cc2OC)ncc1Br (stereo not drawn) [Compound T-359],IC50,[1],10 to 100 nM
same,IC50,[2],10 to 100 nM
same,IC50,[3],10 to 100 nM
CNC(=O)c1ccccc1Nc1nc(Nc2cc(C)c(N3CCN(C(=O)CN4CCC(c5ccc(NC6CCC(=O)NC6=O)cc5F)CC4)CC3)cc2OC)ncc1Cl (stereo not drawn) [Compound T-367],IC50,[1],10 to 100 nM
same,IC50,[2],10 to 100 nM
same,IC50,[3],10 to 100 nM
CNC(=O)c1ccccc1Nc1nc(Nc2cc(C)c(N3CCN(C(=O)CN4CCC(c5ccc(NC6CCC(=O)NC6=O)cc5F)CC4)CC3)cc2OC)ncc1Br (stereo not drawn) [Compound T-368],IC50,[1],10 to 100 nM
same,IC50,[2],10 to 100 nM
same,IC50,[3],10 to 100 nM
CNC(=O)c1ccccc1Nc1nc(Nc2cc(C)c(N3CCN(C(=O)CN4CCC(c5ccc(NC6CCC(=O)NC6=O)cc5F)CC4)CC3)cc2OC)ncc1C(F)(F)F (stereo not drawn) [Compound T-369],IC50,[1],10 to 100 nM
same,IC50,[2],10 to 100 nM
same,IC50,[3],10 to 100 nM
